# Legend:
# [1] = system: outer hair cells; test: Survival rate of outer hair cells in cultured inner ear with cisplatin; format: cell-based, C57BL/6J mouse; conditions: 48 hours
# Method: (§1) In the following Examples 2, 3, and 5, “m.1555A>G mutant” cells were obtained by skin reproductive to a patient having “m.1555A>G mutation” to obtain dermal fibroblasts, then 10% Primary culture was carried out in DMEM (low glucose) culture solution (manufactured by Nacalai Tesque, Inc) containing FBS (Fetal bovine serum) under the condition of 5% CO2/20% O2, at 37° C. and isolated. In the following Examples 4 and 5, the inner ear culture was carried out in DMEM (high glucose) culture medium containing 10% FBS (Fetal bovine serum) under the condition of 5% CO2/20% O2, at 37° C.
# [1] The inner ear of C57BL/6J mouse (hereinafter referred to as “P3 mouse”) on the third day after birth was isolated and cultured in a culture solution for 24 hours.
# [2] […] Thereafter, washing with TBS (TBST) solution containing 0.3% Triton X-100 for 5 minutes was repeated twice, followed by taking photograph with a fluorescence microscope (BZ-9000, manufactured by Keyence) and observed using BZ-H1 software (manufactured by Keyence). From the obtained image, the number of cells and the number of damaged cells, each of which has a shape of 200 μm each corresponding to each part of the apex turn, the media turn, and the basilar turn, were measured and 3 parts of the cochlea (apex, media, basilar) were calculated from the survival rate (%) of the outer hair cells and the inner hair cells. […]
# [2] = system: “m.1555A>G mutant” cells; test: Cytotoxicity level (extracellular LDH activity) of BSO-treated cells; format: cell-based, human; conditions: BSO 100 μM, 48 hours
# Method: as §1
# [1] 2000 cells of “m.1555A>G mutant” cells were plated per well in a 96-well cell culture plate and cultured for 24 hours.
# [2] Glutathione synthesis inhibitor BSO (L-Buthionine sulphoximine) (manufactured by Sigma-Aldrich) was mixed in the culture solution to be 100 μM and cultured for 24 hours (BSO-treated group). As a control, “m.1555A>G mutant” cells were cultured for 24 hours in the absence of BSO (control treatment group). For the BSO-treated group, the compound #5 synthesized in Example 1 was mixed into the culture solution so as to be at various concentrations (0.3, 1, 3, 10, and 30 μM) and cultured for 48 hours (N=4). As a control, the cells were cultured in the absence of compound #5 (DMSO was added so as to be 0.01%.). Cell survival level was measured by MTT assay using Cell Counting Kit-8 (manufactured by Dojindo Laboratories). That is, 100 μL of Cell Count Reagent SF was added to each well, incubated for 2 hours, and after 3 seconds of stirring with a microplate reader, the absorbance was measured at 450 nm (reference 750 nm). In addition, the level of cytotoxicity was detected by measuring lactate dehydrogenase (LDH) activity released extracellularly using Cytotoxicity LDH Assay Kit-WST (manufactured by Dojindo Laboratories). That is, 100 μL each of Working Solution prepared in each well was added, incubated for 30 minutes, Stop Solution was added in 50 μL each, and after stirring for 3 seconds with a microplate reader, the absorbance was measured at 490 nm (reference 750 nm).
# [3] = system: inner ear cells; test: Amount of ATP production in cultured inner ear; format: cell-based, mouse; conditions: compound 10 μM; 3 hour results
# Method: as §1
# [1] The inner ear of P3 mice was isolated and cultured in culture solution for 24 hours.
# [2] The compound #5 synthesized in Example 1 was mixed in the culture solution to be 10 μM and cultured for various times (3 hours, 6 hours, and 12 hours). […] [3] The concentration of ATP in the culture solution was measured with “cellular” ATP assay reagent (manufactured by Toyo Binet).
# [4] = system: “m.1555A>G mutant” cells; test: Amount of ATP production in cells derived from hearing loss patients; format: cell-based, human; conditions: compound 10 μM, 12 hours
# Method: as §1
# [1] Three thousand “m.1555A>G mutant” cells were seeded per well in a 96-well cell culture plate and cultured for 24 hours.
# [2] Compound #5 synthesized in Example 1 was mixed into the culture solution to be 10 μM and cultured for 12 hours (compound-treated group). As a control, “m.1555A>G mutant” cells were cultured in a culture medium in the absence of compound #5 (control group) or in a culture medium containing 0.01% DMSO (DMSO-treated group) for 12 hours. The concentration of ATP in the culture solution was measured with “cellular” ATP assay reagent (manufactured by Toyo Binet).
# [5] = system: skin cells derived from hearing loss patients attributable to other inherited diseases; test: Amount of ATP production in skin cells of patients with other inherited diseases; format: cell-based, human; conditions: POU4F3 gene mutation, MELAS [m.3243A>G mutation], Alport syndrome
compound,measurement,setting,value
"O=C(CC(C(=O)O)c1c[nH]c2ccccc12)c1ccc(F)cc1F (centres unmarked) [compound #5, 4-(2,4-Difluorophenyl)-2-(1H-indol-3-yl)-4-oxo-butanoic Acid]",survival rate of the outer hair cells,"[1]; cisplatin 10 μM, compound 0, 1, 5, 10, 50 μM",increases in a concentration-dependent manner
same,survival rate of the outer hair cells,"[1]; compound 10 μM, cisplatin 0, 5, 7.5, 10, 15, 20 μM, apex, media, basilar",increased as compared with the DMSO-treated group
same,increase in the level of cytotoxicity,"[2]; compound 3 μM, vs BSO-treated DMSO",a significant difference was observed
same,increase in the level of cytotoxicity,[2]; compound at least 0.3 μM,suppressed
same,increase in the level of cytotoxicity,[2]; compound at least 1 μM,reduced to a level almost unchanged from that of the control group
same,amount of ATP production,[3],increases
same,amount of ATP production,[4],increases
same,amount of ATP production,[5],confirmed

# Source: patent US11147796B2, “Agent for preventing or ameliorating hearing impairment” (Tohoku University, priority 2017, dated 2021)
